What all share (assay type): in vivo, mouse
Assay [1] relates to SAMP1/YitFcsJ mice (Crohn's mice). Briefly: Cell/marker and cytokine expression in intestinal tissue after systemic (tail vein) injection. To be noted: 5 weeks, compared to AIFC-PA6/LDT and untreated control animals. Here is the method:
(§1) In order to treat inflammatory lesions that have formed in the intestinal tracts, the following was performed:
Mice (10 weeks of age, female; n=4-7 per group) were brought to the animal holding/surgical room where they were weighed. Animals were placed in a restrainer and independently injected with the aforementioned anti-inflammatory peptide amphiphiles, [AIF-PA1/LDT (treatment; 1 mM) or AIFC-PA6/LDT (control; 1 mM] or untreated/no treatment control group. Approximately 100 μl of solution was injected into the tail vein of the mice. Animals were sacrificed at the 15 weeks of age. Animals were euthanized 5 weeks post-surgery and intestinal tissue was explanted, sectioned and stained with relevant inflammation based antibodies and data was quantified. Gross tissue samples were examined for pathology. Quantified data and results are summarized in FIGS. 4-6.

Assay [2] shares this test system. The assay is described as follows: Cell/marker and cytokine expression in intestinal tissue after direct injection into inflamed intestinal lesions. As to conditions: 5 weeks post-surgery, compared to AIF-PAC and saline injected control animals. The method, then:
as §1
(§2) Mice (10 weeks of age, female) were brought to the operating room where they were weighed, the abdomen shaved to remove hair, and given Buprenorphine (0.05 mg/kg) administered subcutaneously. At the time of surgery, anesthesia was induced with isoflurane (2%) with 02 and the mice were prepped with providine-iodine three times prior to initiating the operation. All mice received a 100 mg/kg dose of IP piperacillin/tazobactam IP followed by a midline abdominal incision (1.0-1.5 cm) made in the linea albea to gain access to the peritoneum. The intestines were then identified in the peritoneal cavity. Following intestinal exposure and identification of intestinal lesions, the anti-inflammatory peptide amphiphiles, [AIF-PA1 (treatment; 2 wt/%) or AIF-PAC (control; 2 wt/%)] or saline (control) were independently injected (20-40 μl) into multiple lesions of the several SAMP1/YitFcsJ mice. Following the surgical procedure, organs were relocated to their original anatomical positions. The abdomen was closed in 2 layers (muscle and skin) with 3-0 PDS suture. After recovery, they were placed back into cages with non-edible bedding and provided ad lib water and liquid diet for the first 7 post-operative days and then returned to ad lib chow. Animals were sacrificed at the 15 weeks of age. Animals were euthanized 5 weeks post-surgery and intestinal tissue was explanted, sectioned and stained with relevant inflammation based antibodies. Tissue samples were subsequently quantified, and the results are depicted in FIGS. 1-3.

Assay [3] has the same test system. Briefly: Inflammatory intestinal lesion size after direct injection into inflamed intestinal lesions. As to conditions: 5 weeks post-injection, pre- versus post-injection, compared to AIF-PAC and saline injected control animals. The method, then:
as §1
as §2, with “After recovery, they were placed back into cages with non-edible bedding and provided ad lib water and liquid diet for the first 7 post-operative days and then returned to ad lib chow. Animals were sacrificed at the 15 weeks of age. Animals were euthanized 5 weeks post-surgery and intestinal tissue was explanted, sectioned and stained with relevant inflammation based antibodies.” left out

*: point of attachment. Palmitoyl = CCCCCCCCCCCCCCCC(=O)*

Take “C16-VVVAAAEEEMQMKKVLDS (Palmitoyl-VVVAAAEEEMQMKKVLDS-NH2; SMILES CCCCCCCCCCCCCCCC(=O)N[C@H](C(=O)N[C@H](C(=O)N[C@H](C(=O)N[C@@H](C)C(=O)N[C@@H](C)C(=O)N[C@@H](C)C(=O)N[C@@H](CCC(=O)O)C(=O)N[C@@H](CCC(=O)O)C(=O)N[C@@H](CCC(=O)O)C(=O)N[C@@H](CCSC)C(=O)N[C@@H](CCC(N)=O)C(=O)N[C@@H](CCSC)C(=O)N[C@@H](CCCCN)C(=O)N[C@@H](CCCCN)C(=O)N[C@H](C(=O)N[C@@H](CC(C)C)C(=O)N[C@@H](CC(=O)O)C(=O)N[C@@H](CO)C(N)=O)C(C)C)C(C)C)C(C)C)C(C)C) [AIF-PA1]”: in assay [1], the IFNγ expression entry is on record as “statistically significant decrease”, the IL-1β expression result was “statistically significant decrease”, the IL-13 expression entry was “statistically significant decrease” and the TNFα expression result is listed as “statistically significant decrease”. In addition, in assay [2] (2 wt/%, 20-40 μl), the “CD68 (macrophages) expression” value is recorded as “statistically significant decrease”, the MAdCAM1 expression entry is given as “statistically significant decrease”, the “anti-inflammatory cytokine IL-10 expression” value is on record as “concomitant increase” and the “mast cell tryptase (mast cells) expression” value is given as “statistically significant decrease”. Moreover, in assay [2], the IFNγ expression entry was “statistically significant decrease”, the IL-1β expression entry is recorded as “statistically significant decrease”, the IL-13 expression entry was “statistically significant decrease” and the TNFα expression result is listed as “statistically significant decrease”. Also, the “change in intestinal lesion size” value in assay [3] is “statistically significant decrease”.

Source of the values: patent US20210113650A1, “NANOMOLECULES FOR THE TREATMENT OF INFLAMMATORY BOWEL DISEASES” (Northwestern University, priority 2018, published 2021).
